Source: patent publication US4163839A, “Isocoformycin and a process for the production thereof” (priority 1977, dated 1979)
Where two headings read alike, the source gives them in different places.

How the values were obtained:
[1] = system: mouse leukemia L-1210 cells; assay: Inhibition of multiplication of L-1210 cells in tissue culture (Lowry method); assay type: cell-based
Text: The isocoformycin is also useful as a strong synergist of formcyin and adenine arabinoside for their antitumor activities. […] The inhibitory effect of formycin with or without isocoformycin on multiplication of the mouse leukemia L-1210 cells measured by the Lowry method [O. H. Lowry, N. J. Rosenbrough, A. L. Farr and R. J. Randall, J. Biol. Chem., 193, 265 (1951)] is directed in Table 2.

[2] = system: mouse leukemia L-1210 cells; assay: Survival period of mice implanted with L-1210 cells; assay type: in vivo
Method: Each dose was injected i.p. 2 hrs. after implantation of 10^5 L-1210 cells once a day for 10 days.
"S. period" is the mean survival time in days.
"T/C" is the ratio of the mean survival time of the treated (with drug) animals versus the control's (no drug) and is expressed as a percentage.

Takadiastase-Y = assay: Inhibition of Takadiastase-Y deamination (decrease in optical density); assay type: biochemical; details: at 45° C., 2 min, read-out: ID50 (the source's name)
Method: (§1) The novel compound of the present invention, isocoformycin (III), is useful because of its ability to inhibit strongly the deamination of formycin, adenine arabinoside and cordycepin by the adenosine deaminase present in mammals and birds. The inhibitory activities of isocoformycin on adenosine deaminase were measured using formycin and adenosine as the substrate. Three ml of a solution of adenosine or formycin in 0.05 M phosphate buffer (12 mg/ml, pH 7.5 and 6.5, respectively) was put in a quartz cell of 1 cm in length and 0.1 ml of a solution containing a known amount of isocoformycin in distilled water was added. The reaction was started by addition of 0.1 ml of enzyme solution (adenosine deaminase from calf intestine: 1 mg/ml of 0.025 M ammonium acetate or Takadiastase-Y: 4 mg/ml of distilled water) and the decreases for 2 minutes in optical densities at 265 nm in the case of adenosine or 295 nm in the case of formycin were recorded on Beckmann spectrophotometer equipped with the Gilford recorder. The concentration of the inhibitor for 50% inhibition (ID50) was calculated from the difference of the optical densities as shown in Table 1.

Escherichia coli NIHJ = assay: Disc method on nutrient agar against Escherichia coli NIHJ; assay type: cell-based; details: for Diameter (inhibition diameter): disc 8 mm, medium containing formycin 50 μg/ml
[3] = target: T1, adenosine deaminase from calf intestine (Bos taurus, UniProt P56658); assay: Inhibition of adenosine deaminase from calf intestine (decrease in optical density); assay type: biochemical; details: at 25° C., read-out: ID50 (the source's name)
T1 construct: from tissue; host or cells: calf intestine
T1 sequence (P56658 1-363): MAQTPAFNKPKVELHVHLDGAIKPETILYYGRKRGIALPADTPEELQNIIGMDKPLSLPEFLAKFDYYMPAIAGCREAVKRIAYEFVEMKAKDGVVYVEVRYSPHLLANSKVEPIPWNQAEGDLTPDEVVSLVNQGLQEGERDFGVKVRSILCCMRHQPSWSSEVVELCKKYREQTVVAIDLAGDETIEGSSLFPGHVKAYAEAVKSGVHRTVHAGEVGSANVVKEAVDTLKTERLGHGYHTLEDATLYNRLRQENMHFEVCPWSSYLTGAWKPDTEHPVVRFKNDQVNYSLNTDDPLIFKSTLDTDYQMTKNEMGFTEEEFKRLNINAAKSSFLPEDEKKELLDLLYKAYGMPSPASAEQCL
Method: as §1

[4] = isocoformycin 1.5 μg/m i.p. once a day for 10 days, without formycin
[5] = isocoformycin 1.5 μg/m with formycin 50 μg/m, i.p. once a day for 10 days
[6] = isocoformycin 3.1 μg/m i.p. once a day for 10 days, without formycin
[7] = isocoformycin 3.1 μg/m with formycin 50 μg/m, i.p. once a day for 10 days
[8] = isocoformycin 6.2 μg/m i.p. once a day for 10 days, without formycin
[9] = isocoformycin 6.2 μg/m with formycin 50 μg/m, i.p. once a day for 10 days
[10] = isocoformycin 12.5 μg/m i.p. once a day for 10 days, without formycin
[11] = isocoformycin 12.5 μg/m with formycin 50 μg/m, i.p. once a day for 10 days
[12] = isocoformycin 25 μg/m i.p. once a day for 10 days, without formycin
[13] = isocoformycin 25 μg/m with formycin 50 μg/m, i.p. once a day for 10 days
[14] = isocoformycin 50 μg/m i.p. once a day for 10 days, without formycin
[15] = isocoformycin 50 μg/m with formycin 50 μg/m, i.p. once a day for 10 days
[16] = formycin 50 μg/m i.p. once a day for 10 days, isocoformycin 0

**Q.** What does the source list for `OC[C@H]1O[C@@H](n2cnc3c2N=CNC(O)C3)[C@H](O)[C@@H]1O` (stereo partly drawn) [Isocoformycin, 3-β-D-ribofuranosyl-3,6,7,8-tetrahydroimidazo[4,5-d][1,3]-diazepin-7-ol]?
**A.** inhibition at 0.2 µg/mL ([1]; Mus musculus, L1210, isocoformycin 0.20 μg/ml, formycin 0.0, read-out: Inhibition (%)): 0%; inhibition at 0.5 µg/mL ([1]; Mus musculus, L1210, isocoformycin 0.50 μg/ml, formycin 0.0): -4%; Inhibition (%) ([1]; isocoformycin 0.20 μg/ml with formycin 0.20 μg/ml): 42%; Inhibition (%) ([1]; isocoformycin 0.50 μg/ml with formycin 0.20 μg/ml): 55%; synergistic effect with formycin in the inhibition of cell multiplication ([1]; tissue cultures, with formycin): strong synergistic effect; prolongation in the survival period ([2]; formycin combined with isocoformycin intraperitoneally): marked prolongation; T/C % [2, 4]: 93%; s.period (mean survival time) [2, 4]: 8.0 days; T/C % [2, 5]: 145%; s.period (mean survival time) [2, 5]: 12.5 days; T/C % [2, 6]: 105%; s.period (mean survival time) [2, 6]: 9.0 days; T/C % [2, 7]: 163%; s.period (mean survival time) [2, 7]: 14.0 days; T/C % [2, 8]: 99%; s.period (mean survival time) [2, 8]: 9.0 days; T/C % [2, 9]: 140%; s.period (mean survival time) [2, 9]: 12.0 days; T/C % [2, 10]: 116%; s.period (mean survival time) [2, 10]: 8.5 days; T/C % [2, 11]: 163%; s.period (mean survival time) [2, 11]: 14.0 days; T/C % [2, 12]: 93%; s.period (mean survival time) [2, 12]: 10.0 days; T/C % [2, 13]: 174%; s.period (mean survival time) [2, 13]: 15.0 days; T/C % [2, 14]: 93%; s.period (mean survival time) [2, 14]: 8.0 days; T/C % [2, 15]: 174%; s.period (mean survival time) [2, 15]: 15.0 days; IC50 (Takadiastase-Y; substrate adenosine, pH 7.5): 1.1 µM; IC50 (Takadiastase-Y; substrate formycin, pH 6.5): 2 µM; Diameter (inhibition diameter) (Escherichia coli NIHJ; isocoformycin 2.5 μg/ml): 22.0 mm; Diameter (inhibition diameter) (Escherichia coli NIHJ; isocoformycin 10 μg/ml): 25.0 mm; Diameter (inhibition diameter) (Escherichia coli NIHJ; isocoformycin 40 μg/ml): 32.0 mm; Diameter (inhibition diameter) (Escherichia coli NIHJ; isocoformycin 200 μg/ml): 36.0 mm; inhibitory activity against Escherichia coli NIHJ (Escherichia coli NIHJ; without formycin, isocoformycin 2 mg/ml): no inhibitory activity; IC50 ([3]; substrate adenosine, pH 7.5): 86 nM; IC50 ([3]; substrate formycin, pH 6.5): 35 nM

**Q.** Which results are given for `OCC1NC=Nc2c1ncn2[C@@H]1O[C@H](CO)[C@@H](O)[C@H]1O` (stereo partly drawn) [9-β-D-ribofuranosyl-6-hydroxymethyl-1,6-dihydropurine, reference compound]?
**A.** IC50 (Takadiastase-Y; substrate adenosine, pH 7.5): 280 µM; IC50 (Takadiastase-Y; substrate formycin, pH 6.5): 200 µM; IC50 ([3]; substrate adenosine, pH 7.5): 5800 nM; IC50 ([3]; substrate formycin, pH 6.5): 2600 nM

**Q.** What does the source list for `Nc1ncnc2c([C@@H]3O[C@H](CO)[C@@H](O)[C@H]3O)[nH]nc12` [Formycin, formycin]?
**A.** inhibition at 0.2 µg/mL ([1]; Mus musculus, L1210): 8%; T/C % [2, 16]: 122%; s.period (mean survival time) [2, 16]: 10.5 days
